Measurements taken from patent US20130053305A1, “PEPTIDE COMPOUNDS THAT CAN BE USED AS ANTIBACTERIAL AGENTS” (UNIVERSIDAD DE BARCELONA, priority 2010, published 2013).
Where two headings read alike, the source gives them in different places. Positions of bridges follow the written chain, without caps; N, C: chain ends. Non-standard residues stand in square brackets, D forms with d. Residues, ends and D or L forms follow the SMILES beside them. *: point of attachment. Nonanoyl = CCCCCCCCC(=O)*; X1 = CC[C@H](C)CCCCC(=O)*; Dab = NCC[C@H](N)C(=O)O

Legend:
[1] = test system: Mycobacterium phlei ATCC 41423; format: cell-based
Method: (§1) The antibacterial activity of the lipopeptides was measured in sterile 96-well plates (Corning Costar 3598 microtiter plates). Samples of a final volume of 200 μL were prepared as follows: aliquots (100 μL) of a suspension containing bacteria at a concentration of 10^5 colony-forming units/mL in culture medium (MH, Muller Hinton Broth, Difco, USA), adjusted at pH 7.4, were added to 100 μL of solution containing the peptide prepared from a stock solution of 1 mg/mL peptide in water in serial 2-fold dilutions in MH broth adjusted to pH 7.4 (Jorgensen and Turnide, 2003).
(§2) Inhibition of bacterial growth was determined by measuring the absorbance at 492 nm with a Absorbance Microplate reader ELx 800 (Bio-tek Instruments) after an incubation of 24-48 h at 37° C. Antibacterial activities are expressed as the MIC, the concentration at which no growth is observed after 24-48 h of incubation.
(§3) Microorganisms were cultured on Tryptycase Soy Broth (Pronadisa, Barcelona) and incubated at 37° C. until bacterial growth was observed. Then a loopful was streaked on Trypticase Soy Agar (Pronadisa, Barcelona) and incubated at 37° C. until colony formation occurred. Microorganisms were preserved on cryobilles (EAS laboratoire, France) at −20° C.
(§4) Bacterial strains used for the antibacterial activity tests were obtained from the American Type Culture Collection (ATCC, Rockville, Md., USA): […]

[2] = test system: Staphylococcus aureus ATCC 6538; format: cell-based
Method: as §1, §2, §3, §4

[3] = test system: Microccous luteus ATCC 9341; format: cell-based, Micrococcus luteus
Method: as §1, §2, §3, §4

[4] = test system: Escherichia coli ATCC 8739; format: cell-based
Method: as §1, §2, §3
(§5) Bacterial strains used for the antibacterial activity tests were obtained from the American Type Culture Collection (ATCC, Rockville, Md., USA):
(§6) Escherichia coli ATCC 8739 Pseudomonas aeruginosa ATCC 9027 Salmonella typhimurium ATCC 14028

[5] = test system: Pseudomonas aeruginosa ATCC 9027; format: cell-based
Method: as §1, §2, §3, §5, §6

[6] = test system: Salmonella typhimurium ATCC 14028; format: cell-based
Method: as §1, §2, §3, §5, §6

[7] = test system: Acinetobacter sp ATCC 5798; format: cell-based
Method: as §1, §2, §3, §5
Acinetobacter sp ATCC 5798

Gram positive bacteria = test: Antibacterial test, summary for Gram positive bacteria; format: cell-based; conditions: summary in words
Method: as §1, §2, §3, §4

[8] = MH broth pH 7.4, 24-48 h at 37° C.
[9] = Table 1 values displayed in micromolar units
[10] = Table 2 values displayed in micromolar units

Compound | MIC Micobacterium phlei ([1]; ATCC 41423) | MIC Micobacterium phlei ([1]; ATCC 41423, pH 7.4) | MIC Staphylococcus aureus ([2]; ATCC 6538) | MIC Staphylococcus aureus [2, 8] | MIC Micrococcus luteus ([3]; ATCC 9341) | MIC Micrococcus luteus [3, 8] | MIC Escherichia coli 8739 ([4]; ATCC 8739) | MIC Escherichia coli 8739 [4, 8] | MIC Pseudomonas aeruginosa 9027 ([5]; ATCC 9027) | MIC Pseudomonas aeruginosa 9027 [5, 8] | MIC Salmonella typhimurium 14028 ([6]; ATCC 14028) | MIC Salmonella typhimurium 14028 ([6]; ATCC 14028, pH 7.4) | MIC Acinetobacter sp ATCC 5798 ([7]; ATCC 5798) | MIC Acinetobacter sp ATCC 5798 [7, 8] | MIC Pseudomonas aeruginosa 9027 ([5]; ATCC 9027, pH 7.4) | MIC Salmonella typhimurium 14028 [6, 8] | MIC Micobacterium phlei [1, 8] | further results
CCCCCCCCC(=O)N[C@@H](CCCNC(=N)N)C(=O)N[C@H](C(=O)N[C@@H](CCN)C(=O)N[C@H]1CSSC[C@@H](C(=O)NCC(=O)N[C@@H](CCCNC(=N)N)C(=O)N[C@H](C(=O)N[C@@H](CCC(=O)O)C(=O)N[C@H](C(=O)N[C@@H](CC(C)C)C(=O)N[C@@H](Cc2ccc(O)cc2)C(=O)N[C@@H](CCCNC(=N)N)C(=O)NCC(=O)N[C@@H](CO)C(=O)N[C@@H](Cc2c[nH]c3ccccc23)C(N)=O)C(C)C)C(C)C)NC(=O)[C@H](CCN)NC(=O)[C@H](CCCNC(=N)N)NC(=O)[C@H](CC(C)C)NC(=O)[C@@H](Cc2ccccc2)NC(=O)[C@H](CCN)NC1=O)[C@@H](C)O [(Ib3)] (Nonanoyl-RT[Dab]C[Dab][dF]LR[Dab]CGRVEVLYRGSW-NH2; disulfide 4-10) | 6.06 µM |  | 6.06 µM | 16 µg/mL | 3.03 to 6.06 µM |  | 6.06 µM | 16 µg/mL | >12.12 µM |  | 6.06 µM |  | 1.51 µM | 4 µg/mL | >32 µg/mL | 16 µg/mL | 16 µg/mL | MIC Micrococcus luteus ([3]; ATCC 9341, pH 7.4): 8 to 16 µg/mL
CCCCCCCCC(=O)N[C@@H](CCCNC(=N)N)C(=O)N[C@H](C(=O)N[C@@H](CCN)C(=O)N[C@H]1CSSC[C@@H](C(=O)N[C@@H](CC(C)C)C(=O)N[C@@H](CCSC)C(=O)N[C@@H](Cc2c[nH]c3ccccc23)C(=O)N[C@@H](Cc2c[nH]c3ccccc23)C(=O)N[C@@H](CCSC)C(=O)N[C@@H](CC(C)C)C(N)=O)NC(=O)[C@H](CCN)NC(=O)[C@H](CCCNC(=N)N)NC(=O)[C@H](CC(C)C)NC(=O)[C@@H](Cc2ccccc2)NC(=O)[C@H](CCN)NC1=O)[C@@H](C)O [(Ib6), nonanoyl-Arg-Thr-Dab-cyclo(S—S)[Cys-Dab-DPhe-Leu-Arg-Dab-Cys]-Leu-Met-Trp-Trp-Met-Leu] (Nonanoyl-RT[Dab]C[Dab][dF]LR[Dab]CLMWWML-NH2; disulfide 4-10) | >14.56 µM | >32 µg/mL | 7.28 µM | 16 µg/mL | 3.64 µM | 8 µg/mL | >14.56 µM |  | >14.56 µM |  | >14.56 µM | >32 µg/mL | 3.64 to 7.28 µM |  | >32 µg/mL |  |  | MIC Escherichia coli 8739 ([4]; ATCC 8739, pH 7.4): >32 µg/mL; MIC Acinetobacter sp ATCC 5798 ([7]; ATCC 5798, pH 7.4): 8 to 16 µg/mL
CC[C@H](C)CCCCC(=O)N[C@@H](CCN)C(=O)N[C@H](C(=O)N[C@@H](CCN)C(=O)N[C@H]1CCNC(=O)[C@H]([C@@H](C)O)NC(=O)[C@H](CCN)NC(=O)[C@H](CCN)NC(=O)[C@H](CC(C)C)NC(=O)[C@@H](Cc2ccccc2)NC(=O)[C@H](CCN)NC1=O)[C@@H](C)O [PxB, (S)-6-methyloctanoyl-Dab-Thr-Dab-cyclo(4-10)[Dab-Dab-DPhe-Leu-Dab-Dab-Thr], reference compound] (X1-[Dab]T[Dab][Dab][Dab][dF]L[Dab][Dab]T; lactam 4-C) |  |  |  | >32 µg/mL |  | 32 µg/mL |  | 1 to 2 µg/mL |  | 2 µg/mL |  |  |  | 0.5 µg/mL |  | 1 µg/mL | 32 µg/mL | MIC Micobacterium phlei [1, 9]: 26.90 µM; MIC Staphylococcus aureus [2, 9]: >26.90 µM; MIC Micrococcus luteus [3, 9]: 26.90 µM; MIC Escherichia coli 8739 [4, 10]: 0.84 to 1.68 µM; MIC Pseudomonas aeruginosa 9027 [5, 10]: 1.68 µM; MIC Salmonella typhimurium 14028 [6, 10]: 0.84 µM; MIC Acinetobacter sp ATCC 5798 [7, 10]: 0.42 µM; antibacterial activity in Gram positive bacteria (Gram positive bacteria): does not show activity against Gram positive bacteria

Continued, in another order:

MIC Micobacterium phlei ([1]; ATCC 41423) | MIC Micobacterium phlei ([1]; ATCC 41423, pH 7.4) | MIC Staphylococcus aureus ([2]; ATCC 6538) | MIC Staphylococcus aureus [2, 8] | MIC Micrococcus luteus ([3]; ATCC 9341) | MIC Micrococcus luteus [3, 8] | MIC Escherichia coli 8739 ([4]; ATCC 8739) | MIC Escherichia coli 8739 [4, 8] | MIC Pseudomonas aeruginosa 9027 ([5]; ATCC 9027) | MIC Pseudomonas aeruginosa 9027 [5, 8] | MIC Salmonella typhimurium 14028 ([6]; ATCC 14028) | MIC Salmonella typhimurium 14028 ([6]; ATCC 14028, pH 7.4) | MIC Acinetobacter sp ATCC 5798 ([7]; ATCC 5798) | MIC Acinetobacter sp ATCC 5798 [7, 8] | MIC Pseudomonas aeruginosa 9027 ([5]; ATCC 9027, pH 7.4) | MIC Salmonella typhimurium 14028 [6, 8] | Compound | MIC Micobacterium phlei [1, 8] | further results
6.08 to 12.16 µM | 8 to 16 µg/mL | 24.32 µM | 32 µg/mL | 12.16 µM | 16 µg/mL | 3.04 µM | 4 µg/mL | 3.04 µM | 4 µg/mL | 6.08 to 12.16 µM | 8 to 16 µg/mL | 6.08 µM | 8 µg/mL |  |  | CCCCCCCCC(=O)N[C@@H](CCCNC(=N)N)C(=O)N[C@H](C(=O)N[C@@H](CCN)C(=O)N[C@H]1CCNC(=O)[C@H]([C@@H](C)O)NC(=O)[C@H](CCN)NC(=O)[C@H](CCCNC(=N)N)NC(=O)[C@H](CC(C)C)NC(=O)[C@@H](Cc2ccccc2)NC(=O)[C@H](CCN)NC1=O)[C@@H](C)O [(Ia1), nonanoyl-Arg-Thr-Dab-cyclo(4-10)[Dab-Dab-DPhe-Leu-Arg-Dab-Thr]] (Nonanoyl-RT[Dab][Dab][Dab][dF]LR[Dab]T; lactam 4-C) |  | 
5.99 to 11.98 µM | 8 to 16 µg/mL | 11.98 µM | 16 µg/mL | 5.99 µM | 8 µg/mL | 5.99 µM | 8 µg/mL | 2.99 µM | 4 µg/mL | 11.98 µM |  | 11.98 µM | 16 µg/mL |  | 16 µg/mL | CCCCCCCCC(=O)N[C@@H](CCCNC(=N)N)C(=O)N[C@H](C(=O)N[C@@H](CCN)C(=O)N[C@H]1CSSC[C@H](C(N)=O)NC(=O)[C@H](CCN)NC(=O)[C@H](CCCNC(=N)N)NC(=O)[C@H](CC(C)C)NC(=O)[C@@H](Cc2ccccc2)NC(=O)[C@H](CCN)NC1=O)[C@@H](C)O [(Ib13), nonanoyl-Arg-Thr-Dab-cyclo(S—S)[Cys-Dab-DPhe-Leu-Arg-Dab-DCys]] (Nonanoyl-RT[Dab]C[Dab][dF]LR[Dab][dC]-NH2; disulfide 4-10) |  | 
